Test results: patent publication US9499478B2, “Substituted cyclopentanes for inducing hair growth” (Allergan, Inc., priority 2011, dated 2016)

What was measured:
[1] = Pharmacokinetic assessment of mouse hair regrowth model (blood and skin); format: in vivo, mice; settings: 0.03% dermal daily, all measured time points, LC/MS-MS
Description: Experimental Design. Female C57BL/6J mice (n=2) were assayed per time point per treatment group. Treatment groups: (1) vehicle; (2) 0.03% Cmpd IVa; (3) 0.03% Cmpd IIIb; (4) 0.03% Cmpd IVb; (5) 0.03% bimatoprost. Treatment dosing: dermal daily application of ˜60 uL test compound solution. Blood and skin pharmacokinetic time points were obtained at day 1 (1, 4, 8 and 24-hrs post-dose); day 2 (24-hrs post-dose); day 14 (24-hrs post-dose); and day 42 (28 days post day 14 dose). Bioanalysis employed LC/MS-MS.

[2] = microAmes mutagenesis screen; format: cell-based; settings: with or without metabolic activation
Text: Experimental Design. Cmpds IVa, IIIb, and IVb were subjected to the microAmes screen, as known in the art.

[3] = test system: mouse model of hair regrowth; assay: Piliation studies (mouse model of hair regrowth); format: in vivo, mice
Description: Experimental Design. C57Black/6J, 7-week old female mice (n=10) were employed in piliation studies. Dorsal hair was shaved (area ˜2 cm×4 cm). Dosing of active agent was once per day (QD) by topical administration for 14 days. Observations were conducted for 42-days to determine onset of new hair growth and day of hair growth completion. Compounds were formulated as either a) 50% propylene glycol, 30% ethanol, 20% water, or b) the formulation of Formulation A described above. The experiments reported for FIGS. 4A-4B, 5A-5B, 6A-6B, 8A-8B, and 9A-9B were conducted using a vehicle with formulation of 50% propylene glycol, 30% ethanol, 20% water. The experiments reported for FIGS. 7A-7B were conducted using a vehicle of Formulation A described above.
Results. For each of FIGS. 4A, 5A, 6A, 7A, 8A and 9A, the histograms depict the day of onset of hair growth. For each of FIGS. 4B, 5B, 6B, 7B, 8B and 9B, the histograms depict the day achieving full hair growth.

[4] = In vitro human skin penetration, Franz diffusion chamber; format: in vitro ADME; settings: for conversion to bimatoprost in the receptor chamber solution / Percentage Dose Applied, Receptor Chamber Solution, Prodrug / Percentage Dose Applied, Upper ⅓ Dermis, Prodrug: 0.03% in Formulation A; for Percentage Dose Applied, Receptor Chamber Solution, Prodrug / Percentage Dose Applied, Upper ⅓ Dermis, Prodrug: applied agent; for Percentage Dose Applied, Upper ⅓ Dermis, Prodrug: dermis at 48 hrs; for conversion to bimatoprost in skin layers: SC/Epi/Dermis layers
Text: Experimental Design. Test material: Dermatomed ex vivo human cadaver posterior trunk skin on 1.0 cm^2 Franz diffusion chamber as known in the art. Test size: 3 skin donors (obtained from New York Firefighters Skin Bank), 3 replicates per donor per formulation. Test formulations: 0.03% active agent (Cmpd IVa, Cmpd IIIb, Cmpd IVb) in Formulation A; control formulation: bimatoprost at 0.03% in Formulation A. Dosing regimen: receptor fluid at 2, 4, 24, and 48 hrs; SC/epidermis and dermis at 48 hrs. Sample analysis: LC/MS-MS to detect bimatoprost and Cmpds IVa, IIIb and IVb.

[5] = Dermal tolerability in rats; format: in vivo; settings: female rats, 3 mg/kg/day daily for 8 days; for change in food consumption or body weight gain (in words): IVb decreases not statistically significant
Description: Experimental Design. Female rats were administered either vehicle or one of Cmpds IVa, IIIb, or IVb daily for 8 days. The administered dose was 3 mg/kg/day, at a concentration of 3 mg/mL. Observed data were body weight, viability, food consumption, and dermal observation (skin reaction grading), as known in the art. The vehicle was Formulation A. See Table 1 above.

mouse skin = assay: Pathology assessment of mouse hair regrowth model; format: in vivo, mice; settings: histology, 0.03%; vehicle control still in growth phase
Text: Experimental Design. Histological samples from test subjects employed in the studies described in Example 12 were obtained for pathology assessment.

[6] = MALDI-MS imaging of compound distribution in mouse skin; format: in vivo
Description: Rationale. In order to determine the penetration, accumulation and/or differential distribution of bimatoprost and compounds disclosed herein upon dermal administration, MALDI-MS (matrix assisted laser desorption ionization mass spectroscopy) imaging was conducted on explanted samples of mouse skin after topical dermal administration.
Experimental Design. MALDI-MS imaging was conducted on mouse skin strips after administration of bimatoprost or compound disclosed herein once daily for 3 days. Samples of mouse skin were recovered 4 hr after day-3 dosing of compound. Dermal administration was conducted with vehicle, 0.03% bimatoprost, 3% bimatoprost, 0.03% Cmpd IVa, and 3% Cmpd IVa.
FIG. 16A depicts a typical explanted sample of mouse skin for these studies, wherein Cmpd IVa was applied via dermal administration. FIG. 16B depicts the result of MALDI-MS imaging. The intensity of each pixel within FIG. 16B reflects the concentration of Cmpd IVa at the corresponding point in the image depicted in FIG. 16A. FIG. 16C depicts a representative mass spectrum, corresponding to the region of FIG. 16B indicated by the white circle within FIG. 16B. Accordingly, each pixel of the image of FIG. 16B has an associated mass spectrum, providing the amounts of bimatoprost or other administered compound or metabolite thereof.

Row | level in the systemic circulation [1] | conversion to bimatoprost in the receptor chamber solution [4] | Percentage Dose Applied, Receptor Chamber Solution, Prodrug [4] | Percentage Dose Applied, Upper ⅓ Dermis, Prodrug [4] | conversion to bimatoprost in skin layers [4] | skin penetration of compound compared with bimatoprost ([6]; 3.0% topical dermal administration each) | detectability of compound in mouse skin by MALDI-MS imaging ([6]; after topical dermal administration at 0.03%) | Structure (SMILES) | mutagenicity [2] | pharmacological efficacy relative to bimatoprost ([3]; vehicle Formulation A) | Body Weight Gain, Mean ± SD [5] | Food Consumption, Mean ± SD [5] | change in food consumption or body weight gain (in words) [5] | hair cycle phase at day-42 (mouse skin) | effectiveness of 0.03% compound compared to 0.1% to 0.3% bimatoprost ([3]; 0.03% Cmpd IVa) | pharmacological efficacy relative to bimatoprost ([3]; vehicle 50% propylene glycol, 30% ethanol, 20% water) | activity in the time required to regain full hair growth ([3]; among compounds tested)
1 | most undetectable | observed to convert to bimatoprost | 0.8% | 2.1% | converted to bimatoprost | – | – | CCNC(=O)CCC/C=C\C[C@@H]1[C@@H](/C=C/[C@@H](O)CCc2ccccc2)[C@H](OC(=O)CC)C[C@@H]1O [Cmpd IIIb, 11-propionyl bimatoprost] | not mutagenic | approximately equivalent efficacy | 10.0 ± 6.1 g | 22.8 ± 1.36 g | no significant change | returned to the resting phase | – | – | –
2 | most undetectable | observed to convert to bimatoprost | 4.3% | 3.8% | converted to bimatoprost | similar | detectable | CCNC(=O)CCC/C=C\C[C@@H]1[C@@H](/C=C/[C@H](CCc2ccccc2)OC(C)=O)[C@H](O)C[C@@H]1O [Cmpd IVa, 15-acetyl-bimatoprost] | not mutagenic | greater than bimatoprost | 9.0 ± 3.0 g | 21.14 ± 1.08 g | no significant change | returned to the resting phase | approximately equally effective | greater than bimatoprost | –
3 | most undetectable | observed to convert to bimatoprost | 2.1% | 1.9% | converted to bimatoprost | – | – | CCNC(=O)CCC/C=C\C[C@@H]1[C@@H](/C=C/[C@H](CCc2ccccc2)OC(=O)CC)[C@H](O)C[C@@H]1O [Cmpd IVb, 15-propionyl-bimatoprost] | not mutagenic | approximately equivalent efficacy | 0.3 ± 6.7 g | 19.19 ± 1.32 g | decreases in both food consumption and body weight gain | returned to the resting phase | – | – | best activity
4 | most undetectable | – | 1.1% | 7.0% | – | – | – | CCNC(=O)CCC/C=C\C[C@@H]1[C@@H](/C=C/[C@@H](O)CCc2ccccc2)[C@H](O)C[C@@H]1O [bimatoprost, (Z)-7-((1R,2R,3R,5S)-3,5-dihydroxy-2-((S,E)-3-hydroxy-5-phenylpent-1-enyl)cyclopentyl)-N-ethylhept-5-enamide, reference compound] | – | – | – | – | – | returned to the resting phase | – | – | –
